One test has as its system murine splenocytes. The experiment in a line: ConA mitogen-stimulated proliferation of murine splenocytes. Format: cell-based, BALB/c mice. To be noted: ConA 1 μg/ml, 100,000 spleen cells, 1 mM to 0.1 μM. On the procedure:
The concanavalin A (ConA) cell proliferation assay was used to assess the effect of homoserine lactone (HSL) compounds on T-cell activation and proliferation. Proliferation was assessed by the incorporation of [^3H]-thymidine into DNA. Eight-week-old female BALB/c mice were obtained from Harlan (Bicester, Oxon, UK) and given food and water ad libitum. Splenocyte suspensions were prepared by removing the spleens and placing them into. RPMI 1640 medium. The spleens were forced through 70-μm-pore-size wire gauzes using the plunger from a 5-ml syringe to produce a single cell suspension. The cells were pelleted by centrifugation, and erythrocytes were lysed with 0.017M Tris, 0.144M ammonium chloride buffer, pH 7.2. Leucocytes were washed twice with RPMI 1640 medium with 2% (vol/vol) foetal calf serum (FCS) and resuspended in complete cell culture medium (CTCM) consisting of RPMI 1640 medium with 5% FCS, 2 mM L-glutamine, and 5×10^−5 M 2-mercaptoethanol. […] After the addition of 25 μl of MicroScint-O (Packard) to each well the filters were counted with the Packard TopCount scintillation counter. […]
(§1) In the cell culture assays the number of cells used (mouse splenocytes and human PBMC) was initially optimised to 100,000 cells per well. The optimal dose of ConA of 1 μg/ml used in the cell proliferation assays was determined from ConA titration curves. […]

For a further test, the system named is human PBMC. The experiment in a line: ConA mitogen-stimulated proliferation of human PBMC. Format: cell-based. The conditions noted are these: ConA 1 μg/ml, 100,000 PBMC. On the procedure:
Blood specimens were obtained with consent from healthy human volunteers. Human peripheral blood mononuclear cells (PBMC) were isolated from heparinised whole blood by buoyant density centrifugation over Histopaque 1077 (Sigma, Poole, UK) at 600 g for 20 minutes. PBMC harvested from the ‘buffy’ layers were washed twice with RPMI 1640 medium and resuspended in CTCM. HSL compounds were tested at similar dilutions as for murine splenocytes in 200 μl of CTCM, containing 1 μg/ml of ConA and 100,000 PBMC. Human PBMC were incubated for 48 h at 37° C. in 5% CO2-air, followed by pulsing with 0.25 μCi [^3H]-thymidine (see above). After a further incubation of 24 h cells were harvested onto fibreglass filters and then counted in the presence of MicroScint-O with the Packard TopCount.
Concanavalin induced cell proliferation of human peripheral blood mononuclear cells (PBMC) was tracked, as described in I above, by a measurement of counts per minute using the scintillation counter. The inhibitory effect of an HSL compound being tested on cell proliferation was indicated by a reduction in counts per minute. […]
as §1

A further test concerns TNF-alpha production. The experiment in a line: TNF-alpha production from LPS-stimulated human PBMC. Format: cell-based. On the procedure: Bacterial lipopolysaccharide (LPS) stimulates the production of a variety of cytokines, including TNF-alpha, from human PBMC; these cytokines in turn influence the development of T cells, supporting a T helper 1 conducive milieu. Human PBMC prepared from whole blood by buoyant density centrifugation were resuspended in CTCM. HSL compounds were again tested at similar dilutions as for murine splenocytes in 200 μl of CTCM, containing 5×10^−5 μg/ml LPS Escherichia coli strain 055:B5 (Sigma, Poole, UK) and 100,000 PBMC. Following incubation for 24 h at 37° C. in 5% CO2-air, the cell culture supernatants were collected and tested for TNF-alpha levels by ‘sandwich’ ELISA. Briefly, 96-well Nunc MaxiSorp (Life Technologies, Paisley, UK) plates were coated with 50 μl of a 2 μg/ml solution of mouse anti-human TNF-alpha monoclonal antibody (Pharmingen, UK) in 0.05 M carbonate/bicarbonate buffer, pH 9.6 overnight at 4° C. After washing the plates three times with PBS-Tween, which contained phosphate buffered saline (PBS) with 0.5% (vol/vol) Tween 20 (Sigma, Poole, UK), the plates were blocked with 1% (wt/vol) bovine serum albumin (BSA) (Sigma, Poole, UK) at room temperature for 2 h. […] Following four washes, the bound biotinylated antibody was detected with 50 μl of a 1:1,000 dilution of Streptavidin-peroxidase (Pharmingen, UK). […] The enzyme reaction was stopped with 50 μl of 2.5 M H2SO4 after an incubation of 10 minutes at room temperature and the development was read at 450 nm with a spectrophotometric 96-well plate reader (Dynex). […]
Similar studies were carried out using, as the HSL compounds, N-(12-bromo-3-oxododecanoyl)-L-homoserine lactone (12BrOdDHL) and N-(12-hydroxy-3-oxododecanoyl)-L-homoserine lactone (12hydroxyOdDHL) and the plots for these are shown in FIG. 9. […] The IC50 value for dexamethasone was determined to be 500.
as §1

The next test concerns diabetes in NOD mice. The test can be described thus: Alleviation of diabetes in NOD mice (incidence of diabetes, Uristix). The format is in vivo. To be noted: above 6 mMol glucose/l = diabetes. On the procedure:
The ability of the lead compound (OdDHL) to alleviate diabetes in NOD mice was determined by treating the mice 3 times per week for 4 weeks at 30 mg/kg as above. DMSO and OHHL were used as controls.
Diabetes was diagnosed using Uristix and a level of above 6 mMol glucose/I was taken to indicate the presence of diabetes.

Each structure is given as a SMILES string. pIC50: −log10 of the molar value.

For the molecule `CCCCCC(=O)CC(=O)N[C@H]1CCOC1=O` [OOHL, N-(3-oxooctanoyl)-L-homoserine lactone, reference compound], the “inhibition of splenocyte proliferation ([3H]-thymidine cpm, FIG. 6)” value in the test on murine splenocytes is listed as “failed to inhibit proliferation”.
Regarding `CCCCCCCCCCCC(=O)CC(=O)N[C@H]1CCOC1=O` [OtDHL, N-(3-oxotetradecanoyl)-L-homoserine lactone], the “inhibition of proliferation of human PBMC ([3H]-thymidine cpm, FIG. 7)” value in the test with human PBMC is on record as “inhibited proliferation”. Moreover, the “inhibition of TNF-α secretion (FIG. 8)” value in the test with TNF-alpha production (LPS 5×10^−5 μg/ml, 100,000 PBMC, 24 h, ELISA) is on record as “inhibited the secretion”.
Regarding `C[C@@H]1C[C@H]2[C@@H]3CCC4=CC(=O)C=C[C@]4(C)[C@@]3(F)[C@@H](O)C[C@]2(C)[C@@]1(O)C(=O)CO` [dexamethasone, reference compound], the pIC50 with TNF-alpha production (LPS-stimulated human PBMC, unit from the IC50 definition, read-out: IC50, concentration which inhibits TNF-α secretion by 50%) is 3.30.
As to `CCCC(=O)CC(=O)N[C@H]1CCOC1=O` [OHHL, N-(3-oxohexanoyl)-L-homoserine lactone, reference compound], the incidence of diabetes is reported as 7/10 in the test with diabetes in NOD mice (Week of Experiment 20, 30 mg/kg 3 times per week for 4 weeks) and 12/20 in the test with diabetes in NOD mice (Week of Experiment 30, 30 mg/kg 3 times per week for 4 weeks, week 30 of experiment).

The values above are taken from patent US20050014751A1, “Use of n-acyl homoserine lactones for the treatment of insulitis” (priority 2001, published 2005).
